Values joined by “and” are separate entries in the source; they are usually repeats but may differ in a detail not shown here. Identical values can stand only once. Active and inactive are the calls of the source.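 The calls were made as follows: active = IC50 no higher than ten times the top tested dose; inconclusive = flat fit with 30 to 70% inhibition, or poor fit; inactive = IC50 above ten times the top dose.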
Test system: Clostridium difficile clinical isolate growth, OD600, 24 h
Assay: growth modulation of Clostridium difficile isolate – OD600, 9-point, retest, dose response (AID 1224920);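 also: inhibitors lower culture turbidity so OD600 falls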

| SMILES | IC50 |
| --- | --- |
| COc1ccccc1NC(=O)N1CCCCN2[C@@H](CO)[C@@H](c3ccc(-c4cccc(C)c4)cc3)[C@@H]2C1 | 23.5 µM |
| O=C(NC[C@H]1N[C@H](CO)[C@@H]1c1ccc(C2=CCCCC2)cc1)c1ccccc1 | 58.2 µM |
| COc1cc(CN2C[C@@H]3N[C@H](C2)C3c2ccc(-c3ccc(C#N)cc3)cc2)cc(OC)c1 (stereo not given in full) | 38.7 µM |
| Cc1ccccc1-c1ccc(C2[C@@H]3CN(S(=O)(=O)Cc4ccccc4)C[C@H]2N3)cc1 (stereo not given in full) | 33.8 µM |
| COc1ccccc1CN1CC[C@@H]2[C@H]1c1cc(C3=CCCCC3)ccc1N[C@@H]2CO | 74.5 µM |
| O=C(Nc1cccc(F)c1)N1CCCCN2[C@H](CO)[C@H](c3ccc(C#CC4CC4)cc3)[C@H]2C1 | 47.6 µM |
| COc1cccc(CN2[C@@H]3CNC[C@H]2C3c2ccc(-c3ccccc3C)cc2)c1 (stereo not given in full) | 29.5 µM |
| OC[C@H]1Nc2ccc(-c3ccc(F)cc3)cc2[C@H]2[C@@H]1CCN2Cc1ccc(F)cc1 | 44.3 µM |
| COc1ccc(-c2ccc(C3[C@@H]4CN(Cc5cc(OC)cc(OC)c5)C[C@H]3N4)cc2)cc1 (stereo not given in full) | 6.55 µM and 25.8 µM |
| O=S(=O)(c1ccccc1)N1C[C@@H]2N[C@H](C1)C2c1ccc(/C=C/c2ccccc2)cc1 (stereo not given in full) | 8.5 µM |
| OC[C@@H]1[C@H](c2ccc(C#CC3CCCC3)cc2)[C@H]2CN(CCC(F)(F)F)CCCCN12 | 26.6 µM |
| OC[C@@H]1Nc2ccc(-c3ccc(F)cc3)cc2[C@@H]2[C@H]1CCN2Cc1ccc(F)cc1 | 82.4 µM |
| C[C@@H]1CN([C@@H](C)CO)C(=O)c2ccccc2-c2ccccc2CO[C@H]1CN(C)Cc1ccccc1C(F)(F)F | > 270 µM (inactive) |
| COc1cc(CN2[C@@H]3CNC[C@H]2C3c2ccc(-c3ccccc3)cc2)cc(OC)c1 (stereo not given in full) | 14.8 µM |
| O=C(NC[C@@H]1N[C@@H](CO)[C@H]1c1ccc(C2=CCCCC2)cc1)c1cccc(F)c1 | 11.2 µM |
| COc1cccc(-c2ccc(C3[C@@H]4CN(C(=O)c5ccc(F)cc5)C[C@H]3N4)cc2)c1 (stereo not given in full) | 65.4 µM |
| N#Cc1ccc(-c2ccc([C@@H]3[C@H]4CNC[C@@H]3N4Cc3ccc4c(c3)OCO4)cc2)cc1 | 102 µM |
| C/C=C/c1ccc(C2[C@@H]3CN(Cc4ccc5c(c4)OCO5)C[C@H]2N3)cc1 (stereo not given in full) | 46.3 µM and 55.8 µM |
| O=C(Nc1ccccc1F)N1CCCCN2[C@@H](CO)[C@@H](c3ccc(/C=C/c4ccccc4)cc3)[C@@H]2C1 | 11.5 µM |
| OC[C@H]1[C@@H](c2ccc(C#CC3CCCC3)cc2)[C@@H]2CN(CCC(F)(F)F)CCCCN12 | 48.2 µM |
| COc1ccc(C#Cc2ccc([C@@H]3[C@H](CO)N4CCCCN(C(=O)Nc5cccc(F)c5)C[C@@H]34)cc2)cc1 | 7.68 µM |
| Cc1ccccc1-c1ccc(C2[C@H]3CNC[C@@H]2N3S(=O)(=O)c2ccccc2C)cc1 (stereo not given in full) | 31.8 µM |

| SMILES | IC50 |
| --- | --- |
| O=S(=O)(Cc1ccccc1)N1CCCCN2[C@H](CO)[C@H](c3ccc(-c4ccc(F)cc4)cc3)[C@H]2C1 | 42.5 µM |
| COc1cccc(C#Cc2ccc3c(c2)[C@@H]2[C@@H](CCN2C(=O)c2ccccc2F)[C@@H](CO)N3C)c1 | 27.7 µM |
| COc1ccc(C#Cc2ccc([C@H]3[C@H](CO)N4CCCCN(C(=O)Nc5cccc(F)c5)C[C@@H]34)cc2)cc1 | 20.9 µM |
| O=C(C[C@H]1CC[C@H]2[C@@H](COC[C@@H](O)CN2C(=O)Nc2ccc(C(F)(F)F)cc2)O1)NCC1CCCCC1 | 6.01 µM |
| O=C(C[C@H]1CC[C@H]2[C@@H](COC[C@H](O)CN2C(=O)Nc2ccc(Cl)c(Cl)c2)O1)NC1CCC1 | 3.65 µM |
| O=C(C[C@H]1CC[C@@H]2[C@H](COC[C@@H](O)CN2C(=O)Nc2ccc(Cl)c(Cl)c2)O1)NCc1ccncc1 | 8.71 µM |
| Cc1ccccc1-c1ccc(C2[C@@H]3CN(C(=O)Nc4ccc(F)cc4)C[C@H]2N3)cc1 (stereo not given in full) | 40.5 µM |
| O=C(C[C@@H]1CC[C@@H]2[C@H](COC[C@H](O)CN2C(=O)Nc2ccc(C(F)(F)F)cc2)O1)NCC1CCCCC1 | 7.67 µM |
| O=S(=O)(Cc1ccccc1)N1CCCCN2[C@@H](CO)[C@@H](c3ccc(-c4ccc(F)cc4)cc3)[C@@H]2C1 | 38 µM |
| CCCC#Cc1ccc([C@@H]2[C@H](CO)N3CCCCN(S(=O)(=O)c4ccccc4C)C[C@@H]23)cc1 | 24 µM |
| Cc1ccccc1-c1ccc(C2[C@@H]3CN(S(=O)(=O)c4ccccc4)C[C@H]2N3)cc1 (stereo not given in full) | 56.1 µM |
| C/C=C/c1ccc(C2[C@H]3CNC[C@@H]2N3Cc2cccc(F)c2)cc1 (stereo not given in full) | 31.1 µM |
| Fc1cccc(-c2ccc(C3[C@@H]4CN(Cc5ccccc5F)C[C@H]3N4)cc2)c1 (stereo not given in full) | 6.44 µM and 6.35 µM |
| Cc1cccc(-c2ccc(C3[C@@H]4CN(C(=O)C5CCCC5)C[C@H]3N4)cc2)c1 (stereo not given in full) | 62.9 µM |
| Fc1ccc(-c2ccc(C3[C@@H]4CN(Cc5ccccc5)C[C@H]3N4)cc2)cc1 (stereo not given in full) | 5.92 µM and 31.9 µM |
| COc1cc(CN2[C@@H]3CNC[C@H]2C3c2ccc(-c3ccc(C#N)cc3)cc2)cc(OC)c1 (stereo not given in full) | 48.1 µM |
| Fc1ccc(-c2ccc(C3[C@@H]4CN(Cc5nccs5)C[C@H]3N4)cc2)cc1 (stereo not given in full) | 63 µM |
| COc1ccccc1C#Cc1ccc2c(c1)[C@H]1[C@H](CCN1C(=O)c1ccc(F)cc1)[C@H](CO)N2 | 0.759 µM |
| Cc1ccccc1-c1ccc([C@H]2[C@@H](CO)N3CCCCN(C(=O)Nc4cccc(F)c4)C[C@H]23)cc1 | 10.6 µM |
| O=C(NC[C@H]1N[C@H](CO)[C@@H]1c1ccc(C2=CCCCC2)cc1)c1cccc(F)c1 | 58.8 µM |
| O=C(Nc1ccc(C(F)(F)F)cc1)N1C[C@@H]2N[C@H](C1)C2c1ccc(-c2cccnc2)cc1 (stereo not given in full) | 15.2 µM |
| Cc1ccccc1S(=O)(=O)N1CCCCN2[C@H](CO)[C@H](c3ccc(-c4cccc(F)c4)cc3)[C@H]2C1 | 11.3 µM |

| SMILES | IC50 |
| --- | --- |
| COc1ccc(S(=O)(=O)N2CCCCN3[C@@H](CO)[C@@H](c4ccc(C#CCC(C)C)cc4)[C@@H]3C2)cc1 | 13.6 µM |
| O=C(Nc1cccc(F)c1)N1CCCCN2[C@@H](CO)[C@@H](c3ccc(C#CC4CC4)cc3)[C@@H]2C1 | 35.4 µM |
| C/C=C/c1ccc(C2[C@H]3CNC[C@@H]2N3C(=O)Nc2ccc(C(F)(F)F)cc2)cc1 (stereo not given in full) | 12 µM |
| COc1cccc(S(=O)(=O)N2C[C@@H]3N[C@H](C2)C3c2ccc(-c3ccccc3C)cc2)c1 (stereo not given in full) | 28.6 µM |
| Cc1ccc(-c2ccc([C@@H]3[C@H](CO)N4CCCCN(C(=O)Nc5ccccc5)C[C@@H]34)cc2)cc1 | 20.2 µM |
| O=C(Nc1ccccc1)N1CCCCN2[C@@H](CO)[C@@H](c3ccc(C#Cc4ccccc4)cc3)[C@@H]2C1 | 19 µM |
| OC[C@@H]1Nc2ccc(C#Cc3cccc(F)c3)cc2[C@@H]2NCC[C@H]12 | 42.8 µM |
| Cc1ccccc1-c1ccc(C2[C@H]3CNC[C@@H]2N3C(=O)Nc2ccc(Cl)cc2)cc1 (stereo not given in full) | 16.9 µM and 34.3 µM |
| COc1cccc(CN2C[C@@H]3N[C@H](C2)C3c2ccc(-c3cccc(C#N)c3)cc2)c1 (stereo not given in full) | 75.5 µM and 30.6 µM |
| COc1ccc(-c2ccc(C3[C@@H]4CN(S(=O)(=O)c5ccccc5C)C[C@H]3N4)cc2)cc1 (stereo not given in full) | 21.9 µM |
| OC[C@H]1[C@H](c2ccc(C#CC3CCCC3)cc2)[C@H]2CN(CCC(F)(F)F)CCCCN21 | 16.8 µM |
| COc1ccccc1-c1ccc(C2[C@@H]3CN(Cc4cccc(F)c4)C[C@H]2N3)cc1 (stereo not given in full) | 6.88 µM |
| OC[C@@H]1[C@@H](c2ccc(C#CC3CCCC3)cc2)[C@H]2CN(CCC(F)(F)F)CCCCN12 | 26.9 µM |
| Cc1ccccc1-c1ccc(C2[C@H]3CNC[C@@H]2N3C(=O)Nc2ccc(C(F)(F)F)cc2)cc1 (stereo not given in full) | 17.4 µM |
| Cc1ccccc1-c1ccc(C2[C@@H]3CN(C(=O)C4CCCCC4)C[C@H]2N3)cc1 (stereo not given in full) | 60.7 µM |
| Cc1cccc(-c2ccc(C3[C@H]4CNC[C@@H]3N4C(=O)Nc3ccccc3Cl)cc2)c1 (stereo not given in full) | 33.2 µM |
| N#Cc1ccc(-c2ccc3c(c2)[C@H]2[C@H](CCN2Cc2ccc4c(c2)OCO4)[C@H](CO)N3)cc1 | 23.4 µM |
| COc1cccc(S(=O)(=O)N2C[C@@H]3N[C@H](C2)C3c2ccc(-c3cccc(C)c3)cc2)c1 (stereo not given in full) | 8.9 µM |
| O=C(C1CC1)N1C[C@@H]2N[C@H](C1)C2c1ccc(/C=C/c2ccccc2)cc1 (stereo not given in full) | 70.3 µM |
| Cc1ccccc1-c1ccc(C2[C@@H]3CN(C(=O)Nc4cccc(F)c4)C[C@H]2N3)cc1 (stereo not given in full) | 39 µM |
| O=C(Nc1ccc(F)cc1)N1C[C@@H]2N[C@H](C1)C2c1ccc(/C=C/c2ccccc2)cc1 (stereo not given in full) | 5.52 µM and 10 µM |
| COc1ccccc1NC(=O)N1CCCCN2[C@H](CO)[C@H](c3ccc(-c4cccc(C)c4)cc3)[C@H]2C1 | 10.3 µM |

| SMILES | IC50 |
| --- | --- |
| Cc1ccc(S(=O)(=O)N2C[C@@H]3N[C@H](C2)C3c2ccc(/C=C/c3ccccc3)cc2)cc1 (stereo not given in full) | 4.98 µM |
| c1ccc(CN2C[C@@H]3N[C@H](C2)C3c2ccc(-c3ccccc3)cc2)cc1 (stereo not given in full) | 18.9 µM and 26.2 µM |
| OC[C@@H]1[C@H](c2ccc(C3=CCCCC3)cc2)[C@@H]2CN(CCC(F)(F)F)CCCCN12 | 34.9 µM |
| CCCC#Cc1ccc([C@H]2[C@@H](CO)N3CCCCN(S(=O)(=O)Cc4ccccc4)C[C@H]23)cc1 | 34.2 µM |
| O=C(Nc1ccccc1)N1CCCCN2[C@H](CO)[C@H](c3ccc(C#Cc4ccccc4)cc3)[C@H]2C1 | 9.4 µM |
| COc1ccccc1CN1C[C@@H]2N[C@H](C1)C2c1ccc(-c2ccccc2)cc1 (stereo not given in full) | 13.3 µM |
| COc1ccc(-c2ccc(C3[C@@H]4CN(Cc5cccc(OC)c5)C[C@H]3N4)cc2)cc1 (stereo not given in full) | 38.5 µM and 16.2 µM |
| O=C(Nc1ccc2c(c1)OCO2)N1C[C@@H]2N[C@H](C1)C2c1ccc(C=Cc2ccccc2)cc1 (stereo not given in full) | 28.3 µM |
| Cc1ccc(-c2ccc([C@@H]3[C@H](CO)N4CCCCN(C(=O)Nc5cccc(F)c5)C[C@@H]34)cc2)cc1 | 6.52 µM |
| CCNC(=O)C[C@H]1CC[C@@H]2[C@H](COC[C@H](O)CN2C(=O)Nc2ccc(C(F)(F)F)cc2)O1 | 9.45 µM |
| COc1ccc(C#Cc2ccc([C@H]3[C@@H](CO)N4CCCCN(C(=O)Nc5cccc(F)c5)C[C@H]34)cc2)cc1 | 4.44 µM |
| O=C(Nc1ccc(F)cc1)N1CCCCN2[C@H](CO)[C@H](c3ccc(-c4ccccc4F)cc3)[C@H]2C1 | 55.9 µM |
| CCCNC(=O)C[C@@H]1CC[C@H]2[C@@H](COC[C@@H](O)CN2C(=O)Nc2ccc(Cl)c(Cl)c2)O1 | 8.45 µM |
| Cc1ccc(-c2ccc([C@@H]3[C@@H]4CN(Cc5ccccc5F)C[C@H]3N4)cc2)cc1 | 4.19 µM |
| OC[C@@H]1[C@H](c2ccc(/C=C/c3ccccc3)cc2)[C@H]2CN(CCC(F)(F)F)CCCCN12 | 28.7 µM |
| O=C(Nc1ccc(C(F)(F)F)cc1)N1[C@@H]2CNC[C@H]1C2c1ccc(-c2ccccc2)cc1 (stereo not given in full) | 18.2 µM and 28.6 µM |
| COc1ccc(NC(=O)N2CCCCN3[C@H](CO)[C@@H](c4ccc(C#Cc5ccccc5)cc4)[C@H]3C2)cc1 | 25.7 µM |
| N#Cc1ccc(-c2ccc3c(c2)[C@@H]2[C@@H](CCN2Cc2ccc4c(c2)OCO4)[C@@H](CO)N3)cc1 | 32.3 µM |
| O=C(C[C@H]1CC[C@H]2[C@@H](COC[C@@H](O)CN2C(=O)Nc2cc(Cl)cc(Cl)c2)O1)N1CCOCC1 | 29.1 µM |

— PubChem BioAssay AID1224920 (Broad Institute, 2016)
